Read-outs that look alike come from different tables or passages of the source.
Columns and labels:
Type in all cases: biochemical
JAK1 = JAK1 (Homo sapiens (Human), UniProt P23458); experiment: JAK Caliper Enzyme Assay at 1 mM ATP, JAK1
How it was run: (§1)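 IC50 (nM) derived from percent conversion of fluorescently labelled peptide, measured by Caliper LabChip mobility-shift separation after EDTA stop. Each JAK family kinase domain (human, recombinant) run at 1 mM ATP and room temperature, conditions set to 20-30% product; DMSO wells define uninhibited baseline.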

TYK2 = TYK2 (Homo sapiens (Human), UniProt P29597); experiment: JAK Caliper Enzyme Assay at 1 mM ATP, TYK2
How it was run: (§2)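 Read-out is Caliper LabChip mobility-shift separation of phosphorylated from unphosphorylated fluorescent peptide after EDTA termination. Each JAK kinase domain (human, recombinant) runs at 1 mM ATP at room temperature, adjusted for 20–30% turnover. Inhibition is normalized to DMSO and positive-control wells and plotted against concentration.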

JAK3 = JAK3 (Homo sapiens (Human), UniProt P52333); experiment: JAK Caliper Enzyme Assay at 1 mM ATP, JAK3
How it was run: as §1

JAK2 = JAK2 (Homo sapiens (Human), UniProt O60674); experiment: JAK Caliper Enzyme Assay at 1 mM ATP, JAK2
How it was run: as §2

Sequence of TYK2 (P29597 897-1176): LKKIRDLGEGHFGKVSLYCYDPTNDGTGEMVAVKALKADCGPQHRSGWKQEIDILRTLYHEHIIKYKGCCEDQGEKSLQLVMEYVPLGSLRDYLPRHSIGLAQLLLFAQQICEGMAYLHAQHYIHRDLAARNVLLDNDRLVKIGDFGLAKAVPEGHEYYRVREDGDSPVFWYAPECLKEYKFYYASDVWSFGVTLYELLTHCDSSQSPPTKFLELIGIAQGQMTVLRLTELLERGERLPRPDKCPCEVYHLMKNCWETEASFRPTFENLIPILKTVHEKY
Sequence of JAK3 (P52333 822-1111): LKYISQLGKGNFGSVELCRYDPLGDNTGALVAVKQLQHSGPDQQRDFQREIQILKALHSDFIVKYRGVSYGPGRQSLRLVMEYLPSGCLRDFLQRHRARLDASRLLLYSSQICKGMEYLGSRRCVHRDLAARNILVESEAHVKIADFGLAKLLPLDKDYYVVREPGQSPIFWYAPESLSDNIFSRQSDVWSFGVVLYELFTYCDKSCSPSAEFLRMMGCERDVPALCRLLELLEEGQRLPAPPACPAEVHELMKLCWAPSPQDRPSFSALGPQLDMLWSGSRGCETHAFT
Sequence of JAK2 (O60674 849-1124): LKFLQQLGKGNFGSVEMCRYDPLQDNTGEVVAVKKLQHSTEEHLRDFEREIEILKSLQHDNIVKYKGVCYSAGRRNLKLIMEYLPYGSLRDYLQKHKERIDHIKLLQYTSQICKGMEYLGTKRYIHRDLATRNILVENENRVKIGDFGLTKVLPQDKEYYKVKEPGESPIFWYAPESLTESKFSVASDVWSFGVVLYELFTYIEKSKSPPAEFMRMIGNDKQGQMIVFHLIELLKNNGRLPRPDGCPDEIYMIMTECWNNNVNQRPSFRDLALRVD
Sequence of JAK1 (P23458 875-1153): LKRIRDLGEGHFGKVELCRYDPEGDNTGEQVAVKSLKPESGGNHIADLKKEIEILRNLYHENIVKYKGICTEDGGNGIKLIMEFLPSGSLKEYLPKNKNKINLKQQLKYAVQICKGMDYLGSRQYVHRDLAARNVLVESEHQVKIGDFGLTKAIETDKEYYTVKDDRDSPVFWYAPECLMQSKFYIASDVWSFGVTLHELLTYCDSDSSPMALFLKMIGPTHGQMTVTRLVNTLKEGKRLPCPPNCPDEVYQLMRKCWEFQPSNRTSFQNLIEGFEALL

Row | IC50 (JAK1) [nM] | IC50 (TYK2) [nM] | IC50 (JAK3) [nM] | IC50 (JAK2) [nM] | IC50 (JAK1; JAK Caliper enzyme assay) [nM] | IC50 (TYK2; JAK Caliper enzyme assay) [nM] | IC50 (JAK3; JAK Caliper enzyme assay) [nM] | IC50 (JAK2; JAK Caliper enzyme assay) [nM] | SMILES
1 | 407 | 63 | > 10000 | 101 |  |  |  |  | CO[C@H]1C[C@@](CC#N)(n2cc(-c3nc(-c4cc(CO)n[nH]4)cc4ncccc34)cn2)C1 [Example 12, [cis-1-(4-{7-[3-(hydroxymethyl)-1H-pyrazol-5-yl]-1,6-naphthyridin-5-yl}-1H-pyrazol-1-yl)-3-methoxycyclobutyl]acetonitrile]
2 | 1640 | 31 | > 10000 | 246 |  |  |  |  | Cn1ccc(-c2cc(-c3cnn([C@]4(CC#N)C[C@@H](C#N)C4)n3)c3cccnc3c2)n1 [Example 312, trans-3-(cyanomethyl)-3-{4-[7-(1-methyl-1H-pyrazol-3-yl)quinolin-5-yl]-2H-1,2,3-triazol-2-yl}cyclobutanecarbonitrile]
3 | 2220 | 48 | > 10000 | 726 |  |  |  |  | N#CC[C@]1(n2ccc(-c3nc(-c4ccnc(C(N)=O)n4)cc4ncccc34)n2)C[C@H](C#N)C1 [Example 243, 4-(5-{1-[trans-3-cyano-1-(cyanomethyl)cyclobutyl]-1H-pyrazol-3-yl}-1,6-naphthyridin-7-yl)pyrimidine-2-carboxamide]
4 |  |  |  |  | 912 | 36 | > 10000 | 468 | N#CC[C@]1(n2cc(-c3cc(-c4cc[nH]n4)cc4nccn34)cn2)C[C@@H](C#N)C1 [Example 454, cis-3-(cyanomethyl)-3-{4-[7-(1H-pyrazol-3-yl)imidazo[1,2-a]pyridin-5-yl]-1H-pyrazol-1-yl}cyclobutanecarbonitrile]
5 | 1040 | 41 | 4420 | 54 |  |  |  |  | N#CCC1(n2ccc(-c3nc(-c4cnn(C5CCNCC5)c4)cc4ncccc34)n2)CN(CC(F)(F)F)C1 [Example 116, [3-(3-{7-[1-(piperidin-4-yl)-1H-pyrazol-4-yl]-1,6-naphthyridin-5-yl}-1H-pyrazol-1-yl)-1-(2,2,2-trifluoroethyl)azetidin-3-yl]acetonitrile]
6 | 790 | 31 | > 10000 | 243 |  |  |  |  | CO[C@H]1C[C@](CC#N)(n2ccc(-c3nc(-c4c[nH]nc4N)cc4ncccc34)n2)C1 [Example 96, (cis-1-{3-[7-(3-amino-1H-pyrazol-4-yl)-1,6-naphthyridin-5-yl]-1H-pyrazol-1-yl}-3-methoxycyclobutyl)acetonitrile]
7 | 554 | 32 | > 10000 | 971 |  |  |  |  | N#CCC1(n2ccc(-c3nc(-c4ccc(=O)[nH]c4)cc4ncccc34)n2)CN(S(=O)(=O)C2CC2)C1 [Example 246, [1-(cyclopropylsulfonyl)-3-{3-[7-(6-oxo-1,6-dihydropyridin-3-yl)-1,6-naphthyridin-5-yl]-1H-pyrazol-1-yl}azetidin-3-yl]acetonitrile]
8 |  |  |  |  | 2610 | 53 | > 10000 | 982 | CS(=O)(=O)N1CC(CC#N)(n2ncc(-c3cc(-c4ccc(=O)[nH]c4)cc4ncccc34)n2)C1 [Example 409, [1-(methylsulfonyl)-3-{4-[7-(6-oxo-1,6-dihydropyridin-3-yl)quinolin-5-yl]-2H-1,2,3-triazol-2-yl}azetidin-3-yl]acetonitrile]
9 | 4350 | 704 | > 10000 | 6630 |  |  |  |  | CC(=O)Nc1cc(-c2cc3ncccc3c(-c3ccn(C4(CC#N)CN(S(C)(=O)=O)C4)n3)n2)cnc1C [Example 228, N-[5-(5-{1-[3-(cyanomethyl)-1-(methylsulfonyl)azetidin-3-yl]-1H-pyrazol-3-yl}-1,6-naphthyridin-7-yl)-2-methylpyridin-3-yl]acetamide]
10 | 2580 | 135 | > 10000 | 990 |  |  |  |  | N#CC[C@]1(n2ncc(-c3cc(-c4cnc(CO)s4)cc4ncccc34)n2)C[C@H](C#N)C1 [Example 342, trans-3-(cyanomethyl)-3-(4-{7-[2-(hydroxymethyl)-1,3-thiazol-5-yl]quinolin-5-yl}-2H-1,2,3-triazol-2-yl)cyclobutanecarbonitrile]
11 | 2770 | 205 | > 10000 | 2080 |  |  |  |  | CC(C)(O)[C@H]1C[C@](CC#N)(n2ccc(-c3nc(-c4cc[nH]n4)cc4ncccc34)n2)C1 [Example 39, [trans-3-(2-hydroxypropan-2-yl)-1-{3-[7-(1H-pyrazol-3-yl)-1,6-naphthyridin-5-yl]-1H-pyrazol-1-yl}cyclobutyl]acetonitrile]
12 |  |  |  |  | 608 | 12 | > 10000 | 29 | CN1C(=O)COc2ccc(-c3cc(-c4cnn([C@]5(CC#N)C[C@H](C#N)C5)n4)c4cccnc4c3)nc21 [Example 425, cis-3-(cyanomethyl)-3-{4-[7-(4-methyl-3-oxo-3,4-dihydro-2H-pyrido[3,2-b][1,4]oxazin-6-yl)quinolin-5-yl]-2H-1,2,3-triazol-2-yl}cyclobutanecarbonitrile]
13 |  |  |  |  | 748 | 16 | 9130 | 67 | N#CC[C@]1(n2ncc(-c3cc(-c4ccc(N)nn4)cc4ncccc34)n2)C[C@@H](C#N)C1 [Example 400, cis-3-{4-[7-(6-aminopyridazin-3-yl)quinolin-5-yl]-2H-1,2,3-triazol-2-yl}-3-(cyanomethyl)cyclobutanecarbonitrile]
14 | > 10000 | 201 | > 10000 | 5380 |  |  |  |  | CS(=O)(=O)N1CC(CC#N)(n2ccc(-c3cc(-c4ccc(=O)[nH]c4)cc4ncccc34)n2)C1 [Example 287, [1-(methylsulfonyl)-3-{3-[7-(6-oxo-1,6-dihydropyridin-3-yl)quinolin-5-yl]-1H-pyrazol-1-yl}azetidin-3-yl]acetonitrile]
15 | 583 | 41 | > 10000 | 119 |  |  |  |  | N#CC[C@]1(n2ccc(-c3nc(-c4cnn(CCO)c4)cc4ncccc34)n2)C[C@H](C#N)C1 [Example 126, trans-3-(cyanomethyl)-3-(3-{7-[1-(2-hydroxyethyl)-1H-pyrazol-4-yl]-1,6-naphthyridin-5-yl}-1H-pyrazol-1-yl)cyclobutanecarbonitrile]
16 | 97 | 17 | 5170 | 26 |  |  |  |  | Cn1cc(-c2cc3ncccc3c(-c3cnn(C4(CC#N)CN(CC(F)(F)F)C4)c3)n2)cn1 [Example 4, [3-{4-[7-(1-methyl-1H-pyrazol-4-yl)-1,6-naphthyridin-5-yl]-1H-pyrazol-1-yl}-1-(2,2,2-trifluoroethyl)azetidin-3-yl]acetonitrile]
17 | 256 | 5 | 8030 | 77 |  |  |  |  | N#CC[C@]1(n2ncc(-c3cc(-c4cn[nH]c4N)cc4ncccc34)n2)C[C@@H](C#N)C1 [Example 320, cis-3-{4-[7-(5-amino-1H-pyrazol-4-yl)quinolin-5-yl]-2H-1,2,3-triazol-2-yl}-3-(cyanomethyl)cyclobutanecarbonitrile]
18 |  |  |  |  | 6270 | 984 | > 10000 | 6780 | N#CC[C@]1(n2ncc(-c3cc(-c4cc(C(N)=O)c(F)cn4)cc4ncccc34)n2)C[C@H](C#N)C1 [Example 385, 2-(5-{2-[cis-3-cyano-1-(cyanomethyl)cyclobutyl]-2H-1,2,3-triazol-4-yl}quinolin-7-yl)5-fluoropyridine-4-carboxamide]
19 | 9680 | 867 | > 10000 | 2770 |  |  |  |  | Cc1cc(-c2cc3ncccc3c(-c3ccn([C@]4(CC#N)C[C@@](C)(C#N)C4)n3)n2)n[nH]1 [Example 46, trans-3-(cyanomethyl)-1-methyl-3-{3-[7-(5-methyl-1H-pyrazol-3-yl)-1,6-naphthyridin-5-yl]-1H-pyrazol-1-yl}cyclobutanecarbonitrile]
20 |  |  |  |  | > 10000 | 252 | > 10000 | 3940 | Cn1cc(-c2cc(-c3cnn(C4(CC#N)CN(CC(F)(F)F)C4)c3)n3ccnc3c2)cn1 [Example 457, [3-{4-[7-(1-methyl-1H-pyrazol-4-yl)imidazo[1,2-a]pyridin-5-yl]-1H-pyrazol-1-yl}-1-(2,2,2-trifluoroethyl)azetidin-3-yl]acetonitrile]
21 | 324 | 15 | > 10000 | 216 |  |  |  |  | N#CCC1CC(CC#N)(n2ccc(-c3nc(-c4ccn[nH]4)cc4ncccc34)n2)C1 (stereo not drawn) [Example 23, 2,2′-(cis-1-{3-[7-(1H-pyrazol-5-yl)-1,6-naphthyridin-5-yl]-1H-pyrazol-1-yl}cyclobutane-1,3-diyl)diacetonitrile]
22 |  |  |  |  | > 10000 | 1540 | > 10000 | 8070 | N#CC[C@]1(n2ncc(-c3cc(-c4cnc5ncccn45)cc4ncccc34)n2)C[C@H](C#N)C1 [Example 418, trans-3-(cyanomethyl)-3-{4-[7-(imidazo[1,2-a]pyrimidin-3-yl)quinolin-5-yl]-2H-1,2,3-triazol-2-yl}cyclobutanecarbonitrile]
23 |  |  |  |  | 4020 | 90 | > 10000 | 682 | CCn1cc(-c2cc(-c3cnn(C4(CC#N)CN(S(C)(=O)=O)C4)n3)c3cccnc3c2)ccc1=O [Example 413, [3-{4-[7-(1-ethyl-6-oxo-1,6-dihydropyridin-3-yl)quinolin-5-yl]-2H-1,2,3-triazol-2-yl}-1-(methylsulfonyl)azetidin-3-yl]acetonitrile]
